Data published in patent publication US8624027B2, “Combination therapy for treating cancer and diagnostic assays for use therein” (AbbVie Inc., priority 2005, dated 2014).
Where two headings read alike, the source gives them in different places.

Tests used:
mantle cell lymphoma = assay: Oral efficacy of EXAMPLE 1 in combination therapy, antitumorigenesis on mantle cell lymphoma; format: in vivo; conditions: without EXAMPLE 1
B-cell lymphoma = assay: Oral efficacy of EXAMPLE 1 in combination therapy, antitumorigenesis on B-cell lymphoma; format: in vivo; conditions: without EXAMPLE 1
Bcl-XL protein = Bcl-XL protein (Homo sapiens, UniProt Q07817); assay: Bcl-XL binding affinity, fluorescence polarization with fluorescein-labeled BAD peptide; conditions: Wang's equation, read-out: Target Binding Affinity Ki (Bcl-XL)
Bcl-XL protein, sequence (Q07817 with tags, fused parts or gaps DEL45-84): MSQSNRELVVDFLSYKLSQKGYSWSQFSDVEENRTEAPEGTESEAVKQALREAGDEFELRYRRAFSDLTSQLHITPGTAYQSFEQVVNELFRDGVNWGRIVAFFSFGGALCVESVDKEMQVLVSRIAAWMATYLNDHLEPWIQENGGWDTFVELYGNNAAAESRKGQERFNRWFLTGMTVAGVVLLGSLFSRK
Description: A mixture comprising 125 μL per well of assay buffer (20 mM phosphate buffer (pH 7.4), 1 mM EDTA, 50 mM NaCl, 0.05% PF-68), 6 nM of Bcl-XL protein (prepared as described in Science 1997, 275, 983-986), 1 nM fluorescein-labeled BAD peptide (prepared in-house) and the DMSO solution of the compound was shaken for 2 minutes and placed in a LJL Analyst (LJL Bio Systems, CA). A negative control (DMSO, 15 nM BAD peptide, assay buffer) and a positive control (DMSO, 1 nM BAD peptide, 6 nM Bcl-XL, assay buffer) were used to determine the range of the assay. Polarization was measured at room temperature using a continuous Fluorescein lamp (excitation 485 nm, emission 530 nm). Percentage of inhibition was determined by (1-((mP value of well-negative control)/range))×100%.
Ki values shown in the tables below were determined using Wang's equation (Wang Z X., An Exact Mathematical Expression For Describing Competitive Binding Of Two Different Ligands To A Protein Molecule. FEBS Lett. 1995; 360:111-4)).

[1] = Pharmacokinetic evaluation in rat; format: in vivo; conditions: male, Sprague-Dawley, plasma; for AUC(0-inf): single 5 mg/kg oral dose, Table 1, read-out: Pharmacokinetic area under the plasma concentration Curve (rat) AUC0-∞; for AUC / Cmax: 5 mg/kg, oral
Outline: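 Male Sprague-Dawley rats (n=3/group) received a single 2 mg/kg IV (jugular slow bolus) or 5 mg/kg oral gavage dose in 10% DMSO/PEG-400; tail-vein plasma sampled to 24 h. Acetonitrile-precipitated plasma quantified by LC-MS/MS (LOQ 0.01 μg/mL); AUC0-∞ by linear trapezoidal rule plus Ct/β extrapolation.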

[2] = system: NCI-H146 human small cell lung carcinoma cells; assay: Cellular efficacy in human tumor cell line (MTS viability assay); format: cell-based; conditions: NCI-H146, 10% human serum, 48 hours
Outline: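 Cells plated at 50,000/well in medium with 10% human serum in place of FBS. Treated with 2-fold serial dilutions from 10 μM to 0.020 μM, in duplicate, at least 3 separate runs. Viable cells measured by MTS after 48 h of compound exposure.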

Bcl-2 protein = biological target: T1, Bcl-2 protein (Homo sapiens, UniProt P10415, DELINS35-91DVEENRTEAPEGTESE, form not given); assay: Bcl-2 binding affinity, fluorescence polarization with fluorescein-labeled BAX peptide; conditions: Wang's equation, read-out: Target Binding Affinity Ki (Bcl-2)
T1 construct: fused on or other part: A short piece of the Bcl-xL (Q07817) loop replaces Bcl-2 loop residues 35-91; The C-terminal membrane anchor is absent
T1 sequence (P10415 with tags, fused parts or gaps with the stated changes): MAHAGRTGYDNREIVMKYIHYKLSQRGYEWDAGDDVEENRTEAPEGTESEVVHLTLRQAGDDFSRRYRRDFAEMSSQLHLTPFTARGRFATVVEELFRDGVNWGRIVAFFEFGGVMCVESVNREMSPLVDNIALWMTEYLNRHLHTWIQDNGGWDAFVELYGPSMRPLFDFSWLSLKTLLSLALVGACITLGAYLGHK

[3] = Table 1, read-out: NCI-H146 Cellular Efficacy EC50
[4] = Table 3, read-out: Pharmacokinetic area under the plasma concentration Curve (rat) AUC
[5] = Table 3, read-out: Pharmacokinetic peak plasma concentration (rat) Cmax
[6] = Table 3, read-out: NCI-H146 Cellular Efficacy H146 EC50
[7] = Table 2, read-out: Pharmacokinetic area under the plasma concentration curve (rat) AUC
[8] = Table 2, read-out: Pharmacokinetic peak plasma concentration (rat) Cmax
[9] = Table 2, read-out: NCI-H146 Cellular Efficacy H146, EC50

Compound	Ki (Bcl-XL protein) [nM]	AUC(0-inf) [1] [µM·h]	EC50 [2, 3] [nM]	Ki (Bcl-2 protein) [nM]	AUC [1, 4] [µM·h]	Cmax [1, 5] [nM]	EC50 [2, 6] [nM]	AUC [1, 7] [µM·h]	Cmax [1, 8] [nM]	EC50 [2, 9] [nM]	tumor regressions, agent alone (mantle cell lymphoma)	tumor regressions, agent alone (B-cell lymphoma)
CC(C)C[C@H](NC(=O)[C@H](Cc1ccccc1)NC(=O)c1cnccn1)B(O)O [bortexomib, reference compound]	–	–	–	–	–	–	–	–	–	–	no tumor regressions	–
rituximab: antibody, RITUXAN® (rituximab) [reference compound]	–	–	–	–	–	–	–	–	–	–	–	no tumor regressions
O=C(NS(=O)(=O)c1ccc(N[C@H](CCN2CC3CC2CO3)CSc2ccccc2)c(S(=O)(=O)C(F)(F)F)c1)c1ccc(N2CCN(CC3=C(c4ccc(Cl)cc4)CCCC3)CC2)cc1 (stereo partly drawn) [Example 9, N-(4-(4-((2-(4-chlorophenyl)cyclohex-1-en-1-yl)methyl)piperazin-1-yl)benzoyl)-4-(((1R)-3-(2-oxa-5-azabicyclo[2.2.1]hept-5-yl)-1-((phenylsulfanyl)methyl)propyl)amino)-3-((trifluoromethyl)sulfonyl)benzenesulfonamide]	≤ 1	1.88	13.7	≤ 1	1.88	156	14	–	–	–	–	–
CN(C)CC[C@H](CSc1ccccc1)Nc1ccc(S(=O)(=O)NC(=O)c2ccc(N3CCN(CC4=C(c5ccc(Cl)cc5)CCCC4)CC3)cc2)cc1S(=O)(=O)C(F)(F)Cl [Example 18, 3-((chloro(difluoro)methyl)sulfonyl)-N-(4-(4-((2-(4-chlorophenyl)cyclohex-1-en-1-yl)methyl)piperazin-1-yl)benzoyl)-4-(((1R)-3-(dimethylamino)-1-((phenylsulfanyl)methyl)propyl)amino)benzenesulfonamide]	≤ 1	0.61	15.4	≤ 1	0.609	59	15	–	–	–	–	–
O=C(NS(=O)(=O)c1ccc(N[C@H](CCN2CCCCCC2)CSc2ccccc2)c(S(=O)(=O)C(F)(F)F)c1)c1ccc(N2CCN(CC3=C(c4ccc(Cl)cc4)CCCC3)CC2)cc1 [Example 16, 4-(((1R)-3-(azepan-1-yl)-1-((phenylsulfanyl)methyl)propyl)amino)-N-(4-(4-((2-(4-chlorophenyl)-1-cyclohex-1-en-1-yl)methyl)piperazin-1-yl)benzoyl)-3-((trifluoromethyl)sulfonyl)benzenesulfonamide]	≤ 2	2.37	37.4	≤ 2	–	–	–	–	–	–	–	–
CO[C@H]1C[C@@H]2CC[C@@H](C)[C@@](O)(O2)C(=O)C(=O)N2CCCC[C@H]2C(=O)O[C@H]([C@H](C)C[C@@H]2CC[C@@H](O)[C@H](OC)C2)CC(=O)[C@H](C)/C=C(\C)[C@@H](O)[C@@H](OC)C(=O)[C@H](C)C[C@H](C)/C=C/C=C/C=C/1C [rapamycin, reference compound]	–	–	–	–	–	–	–	–	–	–	–	10%

Now from value to compound, other results behind:

Ki (Bcl-XL protein) [nM]	AUC(0-inf) [1] [µM·h]	EC50 [2, 3] [nM]	Ki (Bcl-2 protein) [nM]	AUC [1, 4] [µM·h]	Cmax [1, 5] [nM]	EC50 [2, 6] [nM]	AUC [1, 7] [µM·h]	Cmax [1, 8] [nM]	EC50 [2, 9] [nM]	Compound	tumor regressions, agent alone (mantle cell lymphoma)	tumor regressions, agent alone (B-cell lymphoma)
≤ 1	4.08	38.8	≤ 1	–	–	–	–	–	–	CC(C)N(C)CC[C@H](CSc1ccccc1)Nc1ccc(S(=O)(=O)NC(=O)c2ccc(N3CCN(CC4=C(c5ccc(Cl)cc5)CC(C)(C)CC4)CC3)cc2)cc1S(=O)(=O)C(F)(F)Cl [Example 22, 3-((chloro(difluoro)methyl)sulfonyl)-N-(4-(4-((2-(4-chlorophenyl)-4,4-dimethylcyclohex-1-en-1-yl)methyl)piperazin-1-yl)benzoyl)-4-(((1R)-3-(isopropyl(methyl)amino)-1-((phenylsulfanyl)methyl)propyl)amino)benzenesulfonamide]	–	–
≤ 1	1.81	64.3	≤ 1	–	–	–	–	–	–	O=C(NS(=O)(=O)c1ccc(N[C@H](CCN2CCOCC2)CSc2ccccc2)c(S(=O)(=O)C(F)(F)F)c1)c1ccc(N2CCN(CC3=C(c4ccc(Cl)cc4)CCOC3)CC2)cc1 [Example 21, N-(4-(4-((4-(4-chlorophenyl)-5,6-dihydro-2H-pyran-3-yl)methyl)piperazin-1-yl)benzoyl)-4-(((1R)-3-(morpholin-4-yl)-1-((phenylsulfanyl)methyl)propyl)amino)-3-((trifluoromethyl)sulfonyl)benzenesulfonamide]	–	–
≤ 1	4.22	24.2	≤ 1	–	–	–	–	–	–	CC1(C)CCC(CN2CCN(c3ccc(C(=O)NS(=O)(=O)c4ccc(N[C@H](CCN5C[C@@H]6C[C@H]5CO6)CSc5ccccc5)c(S(=O)(=O)C(F)(F)F)c4)cc3)CC2)=C(c2ccc(Cl)cc2)C1 [Example 36, N-(4-(4-((2-(4-chlorophenyl)-4,4-dimethylcyclohex-1-en-1-yl)methyl)piperazin-1-yl)benzoyl)-4-(((1R)-3-((1S,4S)-2-oxa-5-azabicyclo[2.2.1]hept-5-yl)-1-((phenylsulfanyl)methyl)propyl)amino)-3-((trifluoromethyl)sulfonyl)benzenesulfonamide]	–	–
≤ 1	1.67	16.4	≤ 1	–	–	–	–	–	–	CC1(C)CCC(CN2CCN(c3ccc(C(=O)NS(=O)(=O)c4ccc(N[C@H](CCN5C[C@@H]6C[C@H]5CO6)CSc5ccccc5)c(S(=O)(=O)C(F)(F)Cl)c4)cc3)CC2)=C(c2ccc(Cl)cc2)C1 [Example 25, 3-((chloro(difluoro)methyl)sulfonyl)-N-(4-(4-((2-(4-chlorophenyl)-4,4-dimethylcyclohex-1-en-1-yl)methyl)piperazin-1-yl)benzoyl)-4-(((1R)-3-((1S,4S)-2-oxa-5-azabicyclo[2.2.1]hept-5-yl)-1-((phenylsulfanyl)methyl)propyl)amino)benzenesulfonamide]	–	–
≤ 1	7.3	17.5	≤ 1	–	–	–	–	–	–	CN(C)CC[C@H](CSc1ccccc1)Nc1ccc(S(=O)(=O)NC(=O)c2ccc(N3CCN(CC4=C(c5ccc(Cl)cc5)CC(C)(C)CC4)CC3)cc2)cc1S(=O)(=O)C(F)(F)F [Example 37, N-(4-(4-((2-(4-chlorophenyl)-4,4-dimethylcyclohex-1-en-1-yl)methyl)piperazin-1-yl)benzoyl)-4-(((1R)-3-(dimethylamino)-1-((phenylsulfanyl)methyl)propyl)amino)-3-((trifluoromethyl)sulfonyl)benzenesulfonamide]	–	–
≤ 1	1.66	82.7	≤ 1	–	–	–	1.66	290	83	O=C(NS(=O)(=O)c1ccc(N[C@H](CCN2CCOCC2)CSc2ccccc2)c(S(=O)(=O)C(F)(F)F)c1)c1ccc(N2CCN(Cc3ccccc3-c3ccc(Cl)cc3)CC2)cc1 [Example 39, N-(4-(4-((4′-chloro(1,1′-biphenyl)-2-yl)methyl)-1-piperazinyl)benzoyl)-4-(((1R)-3-(4-morpholinyl)-1-((phenylsulfanyl)methyl)propyl)amino)-3-((trifluoromethyl)sulfonyl)benzenesulfonamide]	–	–
≤ 1	3.01	37.8	≤ 1	3.01	129	38	–	–	–	CC(C)N(C)CC[C@H](CSc1ccccc1)Nc1ccc(S(=O)(=O)NC(=O)c2ccc(N3CCN(CC4=C(c5ccc(Cl)cc5)CCCC4)CC3)cc2)cc1S(=O)(=O)C(F)(F)F [Example 33, N-(4-(4-((2-(4-chlorophenyl)cyclohex-1-en-1-yl)methyl)piperazin-1-yl)benzoyl)-4-(((1R)-3-(isopropyl(methyl)amino)-1-((phenylsulfanyl)methyl)propyl)amino)-3-((trifluoromethyl)sulfonyl)benzenesulfonamide]	–	–
≤ 1	0.67	39.4	≤ 1	–	–	–	0.665	72	39	CN(C)CC[C@H](CSc1ccccc1)Nc1ccc(S(=O)(=O)NC(=O)c2ccc(N3CCN(Cc4ccccc4-c4ccc(Cl)cc4)CC3)cc2)cc1S(=O)(=O)C(F)(F)F [Example 38, N-(4-(4-((4′-chloro(1,1′-biphenyl)-2-yl)methyl)-1-piperazinyl)benzoyl)-4-(((1R)-3-(dimethylamino)-1-((phenylsulfanyl)methyl)propyl)amino)-3-((trifluoromethyl)sulfonyl)benzenesulfonamide]	–	–
